{"source": "patent US20170334899A1", "about": "“AMINO-SUBSTITUTED ISOTHIAZOLES” (Bayer Pharma Aktiengesellschaft, priority 2014, published 2017)"}
{"tested_on": "HeLa", "test": "Proliferation assay (crystal violet), HeLa", "format": "cell-based", "settings": "Homo sapiens, HeLa, 96 h, HeLa cells; 4 days incubation; crystal violet staining; read-out: IC50 inhibition of proliferation, HeLa", "how_it_was_run": "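Tumor cells seeded at 1000–5000 cells/well in medium with 10% FCS; after 24 h, compounds added at 0.001–10 μM (0.5% DMSO) for 4 days. Cells fixed with glutaraldehyde, stained with crystal violet, dye dissolved in acetic acid and read at 595 nm. IC50 from 4-parameter fit, normalized to zero-point plate and untreated cells.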", "units": {"IC50": "nM"}}
{"smiles": "Cc1nsc(Nc2cnc(C(F)(F)F)cn2)c1C(=O)Nc1ccc(O[C@@H]2CCN(CC(F)(F)F)C[C@@H]2F)nc1", "note": "[Example 138, N-(6-{[(3S,4R)-3-fluoro-1-(2,2,2-trifluoroethyl)piperidin-4-yl]oxy}pyridin-3-yl)-3-methyl-5-{[5-(trifluoromethyl)pyrazin-2-yl]amino}-1,2-thiazole-4-carboxamide]", "IC50": 140}
{"smiles": "Cc1nsc(Nc2cnc(C(F)(F)F)cn2)c1C(=O)Nc1ccc(O[C@@H]2CCN(CCC(F)(F)F)C[C@@H]2F)nc1", "note": "[Example 139, N-(6-{[(3S,4R)-3-fluoro-1-(3,3,3-trifluoropropyl)piperidin-4-yl]oxy}pyridin-3-yl)-3-methyl-5-{[5-(trifluoromethyl)pyrazin-2-yl]amino}-1,2-thiazole-4-carboxamide]", "IC50": 260}
{"smiles": "CCCN1CC[C@@H](Oc2ccc(NC(=O)c3c(C)nsc3Nc3cnc(C(F)(F)F)cn3)cn2)[C@@H](F)C1", "note": "[Example 140, N-(6-{[(3S,4R)-3-fluoro-1-propylpiperidin-4-yl]oxy}pyridin-3-yl)-3-methyl-5-{[5-(trifluoromethyl)pyrazin-2-yl]amino}-1,2-thiazole-4-carboxamide]", "IC50": 220}
{"smiles": "CCCCN1CC[C@@H](Oc2ccc(NC(=O)c3c(C)nsc3Nc3cnc(C(F)(F)F)cn3)cn2)[C@@H](F)C1", "note": "[Example 141, N-(6-{[(3S,4R)-1-butyl-3-fluoropiperidin-4-yl]oxy}pyridin-3-yl)-3-methyl-5-{[5-(trifluoromethyl)pyrazin-2-yl]amino}-1,2-thiazole-4-carboxamide]", "IC50": 340}
{"smiles": "Cc1nsc(Nc2cnc(C(F)(F)F)cn2)c1C(=O)Nc1ccc(O[C@H]2CCN(CC(F)F)C[C@H]2F)nc1", "note": "[Example 144, N-(6-{[(3R,4S)-1-(2,2-difluoroethyl)-3-fluoropiperidin-4-yl]oxy}pyridin-3-yl)-3-methyl-5-{[5-(trifluoromethyl)pyrazin-2-yl]amino}-1,2-thiazole-4-carboxamide]", "IC50": 160}
{"smiles": "Cc1nsc(Nc2cnc(C(F)(F)F)cn2)c1C(=O)Nc1ccc(O[C@H]2CCN(CC(F)(F)F)C[C@H]2F)nc1", "note": "[Example 145, N-(6-{[(3R,4S)-3-fluoro-1-(2,2,2-trifluoroethyl)piperidin-4-yl]oxy}pyridin-3-yl)-3-methyl-5-{[5-(trifluoromethyl)pyrazin-2-yl]amino}-1,2-thiazole-4-carboxamide]", "IC50": 160}
{"smiles": "Cc1nsc(Nc2cnc(C(F)(F)F)cn2)c1C(=O)Nc1ccc(O[C@H]2CCN(CCC(F)(F)F)C[C@H]2F)nc1", "note": "[Example 146, N-(6-{[(3R,4S)-3-fluoro-1-(3,3,3-trifluoropropyl)piperidin-4-yl]oxy}pyridin-3-yl)-3-methyl-5-{[5-(trifluoromethyl)pyrazin-2-yl]amino}-1,2-thiazole-4-carboxamide]", "IC50": 240}
{"smiles": "CCCN1CC[C@H](Oc2ccc(NC(=O)c3c(C)nsc3Nc3cnc(C(F)(F)F)cn3)cn2)[C@H](F)C1", "note": "[Example 147, N-(6-{[(3R,4S)-3-fluoro-1-propylpiperidin-4-yl]oxy}pyridin-3-yl)-3-methyl-5-{[5-(trifluoromethyl)pyrazin-2-yl]amino}-1,2-thiazole-4-carboxamide]", "IC50": 320}
{"smiles": "CCCCN1CC[C@H](Oc2ccc(NC(=O)c3c(C)nsc3Nc3cnc(C(F)(F)F)cn3)cn2)[C@H](F)C1", "note": "[Example 148, N-(6-{[(3R,4S)-1-butyl-3-fluoropiperidin-4-yl]oxy}pyridin-3-yl)-3-methyl-5-{[5-(trifluoromethyl)pyrazin-2-yl]amino}-1,2-thiazole-4-carboxamide]", "IC50": 370}
{"smiles": "Cc1nsc(Nc2cnc3cc(F)ccc3n2)c1C(=O)Nc1ccc(S(N)(=O)=O)cc1", "note": "[Example 149, 5-[(6-fluoroquinoxalin-2-yl)amino]-3-methyl-N-(4-sulfamoylphenyl)-1,2-thiazole-4-carboxamide]", "IC50": "> 10000"}
{"smiles": "Cc1nsc(Nc2ccc(C#N)cn2)c1C(=O)Nc1cccc(S(C)(=O)=O)c1", "note": "[Example 150, 5-[(5-cyanopyridin-2-yl)amino]-3-methyl-N-[3-(methylsulfonyl)phenyl]-1,2-thiazole-4-carboxamide]", "IC50": 2800}
